Assay results taken from patent publication US4419351A, “Platinum-dioxopyrimidine complexes” (priority 1978, dated 1983).
Where two headings read alike, the source gives them in different places. Each block holds one molecule with its values, some of them ahead of it.

How the values were obtained:
[1] = tested on: ascites Sarcoma-180 tumor; assay: chemotherapeutic activity vs ascites Sarcoma-180 tumor, single i.p. injection on day 1 (Table 2 survey); assay type: in vivo, Swiss White mice; details: for # of cures / Dose of Best % ILS / Toxic Level / Best % ILS (increase in lifespan): carrier saline; for Dose of Best % ILS / Toxic Level / Best % ILS (increase in lifespan): single i.p. day 1; for Toxic Level: 2 or more of 6 animals died within 8 days; for Best % ILS (increase in lifespan): max 100%
Description: The chemotherapeutic activities of the "Platinum Blue" complexes were determined using the ascites Sarcoma-180 tumor in Swiss White mice. The protocols for these tests were as follows: Random bred female Swiss White mice (Spartan Laboratory, Williamston, Mich.) of 18-20 grams weight were randomized in groups of six. The ascites cells were removed from the peritoneal cavities of animals with approximately 10 day old ascites tumors. The cells were washed several times with 0.85% saline and spun down each time in a refrigerated centrifuge for 3-5 minutes at 750 r.p.m. After the blood was removed from the cells, they were diluted with 0.85% saline solution and counted in a hemocytometer. A final dilution of 2×10^7 cells/ml. in saline was made. Each animal received 0.2 ml. of this suspension (4×10^6 cells/animals). This was injected intraperitoneally on day 0 of each test. Two groups (12 animals) were kept as negative controls, and the test was terminated at twice the mean day of death of the negative controls. […] All test compounds were injected i.p. on day one as a 0.5 ml. volume of the compound in a carrier of water, physiologic saline or arachis oil (peanut oil). Soluble compounds were always tested in appropriate solutions, the insoluble ones as a slurry. The slurry was sonicated for periods of up to 10 minutes to insure uniformity of dispersion just prior to injections. […] Retests were performed if a sufficient level of drug toxicity at the highest dose was not reached. Animals still alive at the completion of the tests were considered to have died on the day of evaluation. Animals showing no abdominal distention (by palpation, or visibly) on this day were considered cured.
The compounds tested were usually freshly prepared and purified. The compounds kept for further testing were stored in a vacuum dessicator in a dark refrigerator to prevent deterioration. […] Toxic levels are considered to be that concentration where 2 or more of the 6 animals at the dose died within 8 days of injection.
The letter A indicates the "blue" or first isolated precipitate, the letter B, the "green" or second precipitate.

L1210 Tumor = assay: effects on L1210 tumor (Table 4); assay type: in vivo, BDF Mice; details: for Survivors: at 200% ILS
Text: (§1) Tables 4-7, respectively, tabulate the results achieved when employing the complexes of the invention against the L1210, MCDV 12, (Rauscher Leukemia, virus-induced), Ehrlich Ascites and the ADJ PC6A (myeloma) tumors.
^a All experiments were terminated arbitrarily at 200% ILS and any
survivors were tabulated at that time. All therapy was started on the
third day after tumor transplant. Untreated tumor controls died 10-11 day
after transplant. In some instances efforts to reproduce above results
have shown considerable variability.

[2] = tested on: MCDV 12 (Rauscher Leukemia, Virus Induced); assay: effects on MCDV 12 (Rauscher Leukemia, virus induced) (Table 5); assay type: in vivo, BALB/C Mice; details: for Survivors: at 200% ILS
Text: as §1
^a All experiments were terminated arbitrarily at 200% ILS and
survivors tabulated at that time. All therapy was started on third day
after tumor transplant. Untreated tumor controls died 10-11 days after
transplant. In some instances, efforts to reproduce above results have
shown considerable variability.

ADJ/PC6A Tumor = assay: effects on ADJ/PC6A tumor (Table 7); assay type: in vivo, Female, C^- Mice; details: i.p., single dose, 24 days after tumor implant
[3] = tested on: Mice Kidneys (proximal convoluted tubules); set-up: species or system female Swiss White mice; details: mouse, in vivo
Text: The protocols for these tests were as follows: Each group contained six female Swiss White mice; the tumored animals were given a transplant of a solid Sarcoma-180 tumor on day 0 and treatment was initiated on day 1; the animals were sacrificed on day 10 and the kidneys removed and prepared for histological evaluation; control groups were non-tumored, non-treated animals, and tumored, non-treated animals. Multiple sections of each kidney were examined. […] The saturation concentration cannot be specified other than an estimate of less than 1 mg/100 ml. A very brief summary of the results are compiled in Table 8. The histopathologic degenerative changes are dose dependent in all cases.

[4] = tested on: ascites Sarcoma-180 tumor; assay: schedule dependency tests of antitumor activity (Table 3); assay type: in vivo, Swiss White mice; details: for # of cures / Best % ILS / Dose of Best % ILS: saline
Description: The chemotherapeutic activities of the "Platinum Blue" complexes were determined using the ascites Sarcoma-180 tumor in Swiss White mice. The protocols for these tests were as follows: Random bred female Swiss White mice (Spartan Laboratory, Williamston, Mich.) of 18-20 grams weight were randomized in groups of six. The ascites cells were removed from the peritoneal cavities of animals with approximately 10 day old ascites tumors. The cells were washed several times with 0.85% saline and spun down each time in a refrigerated centrifuge for 3-5 minutes at 750 r.p.m. After the blood was removed from the cells, they were diluted with 0.85% saline solution and counted in a hemocytometer. A final dilution of 2×10^7 cells/ml. in saline was made. Each animal received 0.2 ml. of this suspension (4×10^6 cells/animals). This was injected intraperitoneally on day 0 of each test. Two groups (12 animals) were kept as negative controls, and the test was terminated at twice the mean day of death of the negative controls. […] Soluble compounds were always tested in appropriate solutions, the insoluble ones as a slurry. The slurry was sonicated for periods of up to 10 minutes to insure uniformity of dispersion just prior to injections. […] Retests were performed if a sufficient level of drug toxicity at the highest dose was not reached. Animals still alive at the completion of the tests were considered to have died on the day of evaluation. Animals showing no abdominal distention (by palpation, or visibly) on this day were considered cured.

Ehrlich Ascites Tumor = assay: survival times of mice bearing the Ehrlich ascites tumor (Table 6); assay type: in vivo; details: 7 mg/kg; for Mean Survival Time (+ S.D.): single i.p. day 3
Text: as §1
^a 6 mice/group; each mouse received 10^7 ascites tumor cells on
day 0; treatment was as a single i. p. injection on day 3.

[5] = tested on: Escherichia coli-wild type; assay: anti-microbial activity, growth in test tube cultures (Table 9); assay type: cell-based
Description: The following procedure was utilized to test the anti-microbal activity of the platinum complexes. The tests were performed with Escherichia coli-wild type, growing in test tube cultures. Using standardized techniques, growth in the medium was examined after the incorporation of the various test chemicals, using the increase in the optical density of the medium as against time. The bacteria were also periodically examined under a phase contrast microscope for evidence of elongation (filmentation).

Compound: CC1CNC(=O)NC1=O (stereo not drawn) [5,6-dihydrothymine Class IA]
# of cures ([1]; 6 animals per test): 2
Dose of Best % ILS [1]: 200 mg/kg
Toxic Level [1]: 400 mg/kg
Best % ILS (increase in lifespan) [1]: 87%
% ILS (L1210 Tumor; 30.63 mg/kg q3 hr × 8): 30%
Survivors (L1210 Tumor; 30.63 mg/kg q3 hr × 8): 0/3
% ILS (L1210 Tumor; 50 mg/kg qid × 5): 36%
Survivors (L1210 Tumor; 50 mg/kg qid × 5): 0/3
% ILS (L1210 Tumor; 61.25 mg/kg q3 hr × 8): 0%
Survivors (L1210 Tumor; 61.25 mg/kg q3 hr × 8): 0/3
% ILS (L1210 Tumor; 100 mg/kg qid × 5): 45%
Survivors (L1210 Tumor; 100 mg/kg qid × 5): 0/3
% ILS ([2]; 30.63 mg/kg q3 hr × 8): 75%
Survivors ([2]; 30.63 mg/kg q3 hr × 8): 1/3
% ILS ([2]; 50 mg/kg qid × 5): 157%
Survivors ([2]; 50 mg/kg qid × 5): 2/3
% ILS ([2]; 61.25 mg/kg q3 hr × 6): 121%
Survivors ([2]; 61.25 mg/kg q3 hr × 6): 2/3
% ILS ([2]; 100 mg/kg qid × 5): 0%
Survivors ([2]; 100 mg/kg qid × 5): 0/3
ID 90 (90% Inhibition) (ADJ/PC6A Tumor): 25 mg/kg
LD50 (ADJ/PC6A Tumor): 135 mg/kg

Compound: CCOC(=O)c1c[nH]c(=O)[nH]c1=O [5-carbethoxyuracil Class IA]
# of cures ([1]; 6 animals per test): 0
Dose of Best % ILS [1]: 200 mg/kg
Toxic Level [1]: 200 mg/kg
Best % ILS (increase in lifespan) [1]: 56%
ID 90 (90% Inhibition) (ADJ/PC6A Tumor): 250 mg/kg
LD50 (ADJ/PC6A Tumor): 670 mg/kg

Compound: O=c1[nH]cc(CO)c(=O)[nH]1 [5-hydroxymethyluracil Class IA]
# of cures ([1]; 6 animals per test): 2
Dose of Best % ILS [1]: 100 mg/kg
Toxic Level [1]: 200 mg/kg
Best % ILS (increase in lifespan) [1]: 98%
ID 90 (90% Inhibition) (ADJ/PC6A Tumor): 42 mg/kg
LD50 (ADJ/PC6A Tumor): 40 mg/kg

Compound: O=c1cc(Cl)[nH]c(=O)[nH]1 [6-chlorouracil Class IA]
# of cures ([1]; 6 animals per test): 3
Dose of Best % ILS [1]: 200 mg/kg
Toxic Level [1]: > 200 mg/kg
Best % ILS (increase in lifespan) [1]: 88%
ID 90 (90% Inhibition) (ADJ/PC6A Tumor): 190 mg/kg
LD50 (ADJ/PC6A Tumor): 200 mg/kg

Compound: CC#N.CC#N.[Cl][Pt][Cl] [Pt(CH3 CN)2 Cl2, reference compound]
# of cures ([1]; 6 animals per test): 1
Dose of Best % ILS [1]: 25 mg/kg
Toxic Level [1]: 50 mg/kg
Best % ILS (increase in lifespan) [1]: 83%
gross hepatic damage ([1]; in words): exceptions

saturation concentration in saline: less than 1 mg/100 ml
Compound: [Cl][Pt+2][Cl].[NH-]C1CCCC1.[NH-]C1CCCC1 [cis-dichloro(bis)cyclopentylamineplatinum(II)]
histopathologic degenerative changes at higher dose levels [3]: generalized vacuolar (hydropic) degeneration of the proximal convoluted tubules

Compound: N.N.[Cl][Pt][Cl] [cis-dichlorodiammineplatinum(II)]
Dose of Best % ILS [1]: 7 mg/kg
Best % ILS (increase in lifespan) [1]: 49 (S.D ± 2.82) %
# of cures ([1]; positive control, of 12 animals): 1
# of cures ([4]; day 1, 1 injection): 1
Best % ILS ([4]; day 1, 1 injection): 42 (S.D. ± 3.1) %
Dose of Best % ILS ([4]; day 1, 1 injection): 7 mg/kg
Best % ILS ([4]; every 5th day, 5 injections): 83%
Dose of Best % ILS ([4]; every 5th day, 5 injections): 5 mg/kg
# of cures ([4]; every 5th day, 5 injections, 6 animals per test): 3
Best % ILS ([4]; every 3 hrs., 8 injections): 86%
Dose of Best % ILS ([4]; every 3 hrs., 8 injections): 1 mg/kg
# of cures ([4]; every 3 hrs., 8 injections, 6 animals per test): 5
animals died within 9 days of start (remainder cured) ([4]; every day, 5 injections, 3 mg/kg): Three
Best % ILS ([4]; every day, 5 injections): 19%
Dose of Best % ILS ([4]; every day, 5 injections): 3 mg/kg
# of cures ([4]; every day, 5 injections, 6 animals per test): 3
% ILS ([2]; 5 mg/kg × 1): 146%
Survivors ([2]; 5 mg/kg × 1): 2/3
% ILS ([2]; 8 mg/kg × 1): 62%
Survivors ([2]; 8 mg/kg × 1): 0/2
% ILS ([2]; 16 mg/kg × 1): -15%
Survivors ([2]; 16 mg/kg × 1): 0/3
% Increase in Mean Survival Time (Ehrlich Ascites Tumor; first experiment): 307%
Mean Survival Time (+ S.D.) (Ehrlich Ascites Tumor; first experiment (control 8.3 days)): 33.8 ± 16.9 days
animals that survived > 60 days (Ehrlich Ascites Tumor; first experiment, 6 mice/group): 2 animals
% Increase in Mean Survival Time (Ehrlich Ascites Tumor; second experiment): 194%
Mean Survival Time (+ S.D.) (Ehrlich Ascites Tumor; second experiment (control 10.1 days)): 29.7 ± 4.2 days
ID 90 (90% Inhibition) (ADJ/PC6A Tumor): 1.6 mg/kg
histopathologic degenerative changes at higher dose levels [3]: generalized vacuolar (hydropic) degeneration of the proximal convoluted tubules
Observed Renal Histopathological Changes ([3]; 0.5 mg/kg): normal
Observed Renal Histopathological Changes ([3]; 1 mg/kg): normal
Observed Renal Histopathological Changes ([3]; 2 mg/kg): mild degenerative changes (cloudy swelling)
Observed Renal Histopathological Changes ([3]; 3 mg/kg): mild degenerative changes (cloudy swelling)
Observed Renal Histopathological Changes ([3]; 7 mg/kg): extensive degenerative changes (hydropic degeneration)
Optical Density of Bacterial Cultures ([5]; 7 ppm, 1:45 p.m., first run): .74
Optical Density of Bacterial Cultures ([5]; 7 ppm, 2:45 p.m., first run): .78
Optical Density of Bacterial Cultures ([5]; 7 ppm, 9:30 a.m., first run): .19
Optical Density of Bacterial Cultures ([5]; 7 ppm, 10:45 a.m., first run): .31
Optical Density of Bacterial Cultures ([5]; 7 ppm, 11:45 a.m., first run): .44
Optical Density of Bacterial Cultures ([5]; 7 ppm, 12:45 p.m., first run): .62
Optical Density of Bacterial Cultures ([5]; 10 ppm, 1:00 p.m., second run): .49
Optical Density of Bacterial Cultures ([5]; 10 ppm, 2:00 p.m., second run): .55
Optical Density of Bacterial Cultures ([5]; 10 ppm, 3:20 p.m., second run): .60
Optical Density of Bacterial Cultures ([5]; 10 ppm, 9:30 a.m., second run): .12
Optical Density of Bacterial Cultures ([5]; 10 ppm, 11:00 a.m., second run): .26
Optical Density of Bacterial Cultures ([5]; 10 ppm, 12:00 p.m., second run): .37
